Test results published in PubChem BioAssay (NCI).
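Five concentrations, 48 hours, 96-well plates. TGI: concentration producing complete growth inhibition.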

Tests used:
Assay in all cases: NCI-60 cell line screen, 48 h
[1] = tested on: 786-0 renal
[2] = tested on: A498 renal
[3] = tested on: ACHN renal
[4] = tested on: CAKI-1 renal
[5] = tested on: CCRF-CEM leukemia
[6] = tested on: COLO 205 colon
[7] = tested on: DLD-1 colon
[8] = tested on: DMS 114 small cell lung
[9] = tested on: DMS 273 small cell lung
[10] = tested on: HCC-2998 colon
[11] = tested on: HCT-116 colon
[12] = tested on: HCT-15 colon
[13] = tested on: HL-60(TB) leukemia
[14] = tested on: HOP-62 NSCLC
[15] = tested on: HOP-92 NSCLC
[16] = tested on: HT29 colon
[17] = tested on: IGROV1 ovarian
[18] = tested on: K-562 leukemia
[19] = tested on: KM12 colon
[20] = tested on: LOX IMVI melanoma
[21] = tested on: LXFL 529 NSCLC
[22] = tested on: M14 melanoma
[23] = tested on: MALME-3M melanoma
[24] = tested on: MOLT-4 leukemia
[25] = tested on: NCI-H226 lung
[26] = tested on: NCI-H23 lung
[27] = tested on: NCI-H460 lung
[28] = tested on: OVCAR-3 ovarian
[29] = tested on: OVCAR-4 ovarian
[30] = tested on: OVCAR-5 ovarian
[31] = tested on: RPMI-8226 leukemia
[32] = tested on: RXF 393 renal
[33] = tested on: RXF-631 renal
[34] = tested on: SF-268 CNS
[35] = tested on: SF-295 CNS
[36] = tested on: SK-MEL-2 melanoma
[37] = tested on: SK-MEL-28 melanoma
[38] = tested on: SN12C renal
[39] = tested on: SNB-19 CNS
[40] = tested on: SNB-75 CNS
[41] = tested on: U251 CNS
[42] = tested on: UACC-257 melanoma
[43] = tested on: UACC-62 melanoma
[44] = tested on: UO-31 renal
[45] = tested on: XF 498 CNS

Measured: TGI

COc1ccc2oc(-c3ccncc3)cc(=O)c2c1
> 100 µM: all assays above
